Values of other authors as cited in patent US10485754B2, “Method for the production of a sodium ion-free effervescent tablet, powder or granulate having a high X ion content, where X can be a variety of substances” (BIOFAR LABORATOIRES, priority 2014, dated 2019).

SMILES: O=C([O-])[O-].[Ca+2] [calcium carbonate]
- calcium carbonate that can be dissolved in one liter of water (water): 0.014 grams in one liter of water
- calcium carbonate that can be dissolved in one liter of water with CO2 (with CO2 soda in the water): up to 16.6 grams in one liter of water
